The source of these data is US4990520A, “2-,4- or 5-substituted thiazole derivatives” (American Cyanamid Company, priority 1990, dated 1991).

pIC50: −log10 of the molar value. Where a name gives a salt, the structure may show the parent alone.

Assay [1] concerns the target muscarinic cholinergic receptor. Nature of the assay: [3H] Quinuclinyl Benzilate (3H-QNB) Binding Assay. Conditions: pH 7.4. Also noted: species or system rat.
For assay [2], the target named is high affinity agonist conformation of the muscarinic cholinergic receptor. Nature of the assay: [3H]-Cis-methyldioxolane (3H-CD) Binding Assay (High Affinity). Conditions: rat cerebral cortex, 1.0 nM 3H-CD, 25° C., 120 minutes, pH 7.4.
Assay [3] concerns SDAT patients. Conditions: versus anticholinesterase inhibitor physostigmine; cited from earlier work.
Assay [4] relates to presynaptic cholinergic. Conditions: cited from earlier work.
The test system of assay [5] is postsynaptic cholinergic. Conditions: cited from earlier work.
[6] abbreviates: rat cerebral cortex, 0.25 nM 3H-QNB, 25° C., 120 minutes.
[7] abbreviates: rat cerebral cortex, 0.25 nM 3H-QNB, 25° C., 120 minutes, hydrochloride.

By pIC50 is commonly meant the negative decadic logarithm of the IC50, by convention in mol/L. Low values mean a high IC50, high ones a low IC50. Take `C(#Cc1nccs1)CN1CCCC1` [2-[3-(1-Pyrrolidinyl)-1-propynyl]thiazole]: the pIC50 in assay [1] (setting [6]) was 4.36; in assay [2] it was 5.85.
Regarding `COC(=O)C1=CCCN(C)C1` [arecoline], the “improvement when compared to physostigmine” value in assay [3] is “more-consistent improvement”.
`C(#Cc1cncs1)CN1CCCCC1` [1-[3-(5-Thiazolyl)-2-propynyl]piperidine, hydrochloride]: the pIC50 in assay [1] (setting [6]) was 3.92; in assay [2], 6.18.
On to `C(#Cc1cncs1)CN1CCCC1` [5-[3-(1-Pyrrolidinyl)-1-propynyl]thiazole], for which the pIC50 is 4.14 in assay [1] (setting [6]) and 6.61 in assay [2].
For the molecule `CN(C)CC#Cc1cncs1` [N,N-Dimethyl-3-(5-thiazolyl)-2-propyn-1-amine], the pIC50 in assay [1] (setting [6]) is 3.12; in assay [2], 5.47.
Take `C[N+](C)(C)CC#Cc1cncs1` [N,N,N-Trimethyl-3-(5-thiazolyl)-2-propyn-1-aminium iodide]: the pIC50 in assay [1] (setting [6]) is 3.88; in assay [2] it was 6.56.
Regarding `Cl/C(=C/c1nccs1)CN1CCCC1` [2-[2-Chloro-3-(1-pyrrolidinyl)-1-propenyl]thiazole,(E)], the pIC50 in assay [1] (setting [6]) was 3.73; in assay [2], 5.65.
As to `C(#Cc1cscn1)CN1CCCC1` [4-[3-(1-Pyrrolidinyl)-1-propynyl]thiazole], the pIC50 in assay [1] (setting [6]) was 4.15; in assay [2], 5.40.
For `CN(C)C/C(Cl)=C\c1nccs1` [2-Chloro-N,N-dimethyl-3-(2-thiazolyl)-2-propen-1-amine,(E)], in that order: 3.65 and 5.97.
In the case of `Br/C(=C/c1nccs1)CN1CCCC1` [2-[2-Bromo-3-(1-pyrrolidinyl)-1-propenyl]thiazole,(E)], the pIC50 in assay [1] (setting [6]) was 4.05.
For `C(#Cc1nccs1)CN1CCCCC1` [1-[3-(2-Thiazolyl)-2-propynyl]piperidine], the pIC50 in assay [1] (setting [6]) is 3.74; in assay [2], 4.99.
For `CC(=O)N(C)C(C)C#CCN1CCCC1` (stereo not shown) [BM-5, N-methyl-N-(1-methyl-4-pyrrolidino-2-butynyl) acetamide], the presynaptic cholinergic activity entry in assay [4] was “presynaptic cholinergic antagonist”. Besides, the postsynaptic cholinergic activity result in assay [5] is listed as “postsynaptic partial cholinergic agonist”.
As to `CN(C)CC#Cc1cncs1` [N,N-Dimethyl-3-(5-thiazolyl)-2-propyn-1-amine, hydrochloride], in assay [1] (setting [7]), the pIC50 is 3.32.
In the case of `C(#Cc1cncs1)CN1CCCC1` [5-[3-(1-Pyrrolidinyl)-1-propynyl] thiazole] [5-[3-(1-Pyrrolidinyl)-1-propynyl]thiazole], the pIC50 in assay [1] (setting [6]) is 3.94; in assay [2], 5.33.
Turning to `C[N+](C)(C)CC#Cc1nccs1` [N,N,N-Trimethyl-3-(2-thiazolyl)-2-propyn-1-aminium iodide], the negative logarithm of the IC50 (pIC50) in assay [1] is 3.91; in assay [2], 6.17.
Take “1-[3-(5-Thiazolyl)-2-propenyl]piperidine”: the negative logarithm of the IC50 (pIC50) in assay [1] (setting [6]) is 3.79; in assay [2] it was 4.90.
Regarding `CN(C)CC#Cc1cscn1` [--N, --N-Dimethyl-3-(4-thiazoyl)-2-propyn-1-amine] [N,N-Dimethyl-3-(4-thiazoyl)-2-propyn-1-amine], the values for the pIC50 in assay [1] (setting [6]) and in assay [2] were 3.42 and 4.72, respectively.
As to `C(#Cc1cscn1)CN1CCCCC1` [1-[3-(4-Thiazolyl)-2-propynyl]piperidine], the pIC50 is 3.91 in assay [1] (setting [6]) and 4.55 in assay [2].
Take `CN(C)CC#Cc1cscn1` [--N, --N-Dimethyl-3-(4-thiazolyl)-2-propyn-1-amine] [N,N-Dimethyl-3-(4-thiazolyl)-2-propyn-1-amine]: the pIC50 in assay [1] (setting [6]) was 3.30; in assay [2], 4.89.
Taken in the same sequence, the figures for `CN(C)CC#Cc1nccs1` [N,N-Dimethyl-3-(2-thiazolyl)-2-propyn-1-amine] were 2.88 and 5.00.
Take `C[N+](C)(C)CC#Cc1cscn1` [N,N,N-Trimethyl-3-(4-thiazolyl)-2-propyn-1-aminium, iodide]: the figures for the pIC50 in assay [1] and in assay [2] were 3.92 and 5.84, respectively.
Take `Cl/C(=C/c1nccs1)CN1CCCCC1` [1-[2-Chloro-3-(2-thiazolyl)-2-propenyl]piperidine,(E)]: the figures for the negative logarithm of the IC50 (pIC50) in assay [1] (setting [6]) and in assay [2] were 3.93 and 5.18, respectively.
On to `C(#Cc1cscn1)CN1CCCCC1` [1-[3-(4-Thiazolyl)-2-propynyl]piperidine, hydrochloride], for which the pIC50 in assay [1] (setting [7]) is 3.94; in assay [2] (hydrochloride), 4.85.
